The text below walks through data of patent US20170087205A1, “Replacement Therapy for Natriuretic Peptide Deficiencies” (priority 2014, published 2017).

Series [1] concerns the target human NEP (hNEP) (Homo sapiens, UniProt P08473). The experiment in a line: Metabolism by human neutral endopeptidase (hNEP). Format: in vitro ADME. The following applies: two hours, 37° C., substrate concentration 50 μM. The procedure: Pharmacol. 191:341-366 (2009)). A comparison was made between the sensitivity of the mimetic of formula IV and ANP to metabolism by human NEP (hNEP) (substrate concentration 50 μM). After two hours exposure to hNEP solution at 37° C., there was minimal degradation of the mimetic of formula IV (92% remaining; n=5). In contrast, under these conditions ANP was about 90% degraded after 60 minutes and 100% degraded after two hours (n=4). […] Results are shown in FIG. 1; results in FIG. 1 are expressed as the percent of the starting material, and are either the mean of 1-5 experiments or, where error bars are shown, are the mean±standard deviation.

The conditions of series [2]: in vivo; cited from earlier work.
Series [3] addresses T1, human NPRA (Homo sapiens, UniProt P16066).
T1 sequence (P16066 33-1061): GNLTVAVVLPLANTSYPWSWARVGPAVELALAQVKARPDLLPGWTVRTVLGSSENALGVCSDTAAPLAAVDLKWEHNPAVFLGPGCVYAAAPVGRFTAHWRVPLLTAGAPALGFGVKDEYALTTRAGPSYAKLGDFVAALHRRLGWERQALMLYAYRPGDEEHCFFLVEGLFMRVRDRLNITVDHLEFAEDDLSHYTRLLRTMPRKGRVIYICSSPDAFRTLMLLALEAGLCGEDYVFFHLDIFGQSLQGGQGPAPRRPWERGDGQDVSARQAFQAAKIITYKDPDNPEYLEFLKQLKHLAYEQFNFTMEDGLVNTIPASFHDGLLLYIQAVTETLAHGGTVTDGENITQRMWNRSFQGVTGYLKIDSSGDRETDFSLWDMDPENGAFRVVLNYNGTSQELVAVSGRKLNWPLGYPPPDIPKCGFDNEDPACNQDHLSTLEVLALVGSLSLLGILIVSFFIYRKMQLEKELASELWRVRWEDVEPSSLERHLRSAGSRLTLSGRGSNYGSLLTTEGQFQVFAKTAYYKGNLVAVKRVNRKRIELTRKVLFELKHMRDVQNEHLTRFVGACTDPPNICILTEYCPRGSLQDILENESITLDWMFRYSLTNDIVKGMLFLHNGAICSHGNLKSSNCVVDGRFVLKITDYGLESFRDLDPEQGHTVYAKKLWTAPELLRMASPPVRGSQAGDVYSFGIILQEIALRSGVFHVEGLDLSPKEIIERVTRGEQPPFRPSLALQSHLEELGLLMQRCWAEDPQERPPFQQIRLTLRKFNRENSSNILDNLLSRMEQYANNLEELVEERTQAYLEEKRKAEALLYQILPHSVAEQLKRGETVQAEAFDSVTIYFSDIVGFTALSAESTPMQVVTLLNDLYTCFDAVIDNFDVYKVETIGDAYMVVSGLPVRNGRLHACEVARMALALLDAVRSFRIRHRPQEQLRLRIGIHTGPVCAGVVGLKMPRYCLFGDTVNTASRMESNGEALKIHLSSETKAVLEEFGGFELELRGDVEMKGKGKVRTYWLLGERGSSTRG
Format: cell-based. Conditions: human NPRA in HEK cells; mean ± SD.
Experimental: A cDNA clone that encodes for human natriuratic peptide receptor A (NPRA) was purchased from Bio S&T Inc. (Montreal, Quebec). The cDNA clone was inserted into the mammalian expression vector pcDNA3.1 (Invitrogen) and transfected into HEK-293 cells. Stable clones were selected by culture of cells in the presence of G418 sulfate. […] HEK-hNPRA cells were maintained in culture at 37° C. in 5% CO2 in Dulbecco's Modified Eagle's Medium (DMEM) supplemented with 10% FBS, G418 sulfate (300 μg/mL) sodium glutamate (0.29 mg/mL), penicillin (100 units/mL) and streptromycin (100 ug/mL).
Functional evaluation of natriuretic peptide mimetics was performed by measuring the accumulation of intracellular cGMP in HEK-293 cells that express recombinant hNPR-A. HEK-NPRA cells were harvested by washing and centrifugation in Cell Dissociation Buffer (Gibco, Life Technologies). Pelleted cells were resuspended in Hank's Balanced Salt Solution (HBSS) containing 10 mM Hepes (pH 7.4), 5 mM MgCl2, 200 mM L-glutamine, 1 mM 1,10-phenanthroline and BSA (0.5 mg/mL). Following centrifugation, cells were resuspended in the above buffer supplemented with 0.5 mM 3-isobutyl-1-methylxanthine (IBMX). […] Accumulation of cGMP was measured using the cGMP Flashplate RIA (Perkin-Elmer). Data analysis and EC50 values were determined by using nonlinear regression analysis with GraphPad Prism® software.

The nature of series [4]: Safety study in healthy volunteers: pharmacodynamic parameters (plasma cGMP). Format: in vivo, human. The following applies: mean ± SD. From the text:
Cyclic guanosine monophosphate (cGMP) in the plasma samples was extracted using a protein precipitation method. cGMP and internal standard, cyclic adenosine monophosphate (cAMP), were separated using a HPLC technique and detected by an Applied Biosystems API-4000 liquid chromatography-tandem mass spectrometer (LC-MS/MS) with turbo-ion spray ionization (electrospray) in positive ion mode. Positive ions were detected in multiple reaction monitoring (MRM) mode with Precursor→Product ion pairs of 346.3→152.1 for cGMP, and 330.0→136.3 for cAMP.
In a safety study, the mimetic of formula IV was administered to healthy volunteers. Doses of 0.1, 0.3, 0.7 and 1.0 μg/kg of the mimetic of formula IV were administered.
Kel is the apparent terminal elimination rate constant, calculated by linear regression of the terminal linear portion of the log concentration versus the time curve. The plasma cGMP concentrations returned to baseline levels by approximately 8 hours after dosing following 0.7 μg/kg and 1.0 μg/kg of the mimetic of formula IV.

SMILES strings stand for the structures. Positions of bridges follow the written chain, without caps; N, C: chain ends. Non-standard residues stand in square brackets, D forms with d. Residues, ends and D or L forms follow the SMILES beside them. *: point of attachment. X1 = N=C(N)NCCC[C@H]1C(=O)N[C@@H](C(N)=O)CN1*; dNle = CCCC[C@@H](N)C(=O)O; Heptanoyl = CCCCCCC(=O)*

Sequence of human NEP (hNEP) (P08473 whole entry): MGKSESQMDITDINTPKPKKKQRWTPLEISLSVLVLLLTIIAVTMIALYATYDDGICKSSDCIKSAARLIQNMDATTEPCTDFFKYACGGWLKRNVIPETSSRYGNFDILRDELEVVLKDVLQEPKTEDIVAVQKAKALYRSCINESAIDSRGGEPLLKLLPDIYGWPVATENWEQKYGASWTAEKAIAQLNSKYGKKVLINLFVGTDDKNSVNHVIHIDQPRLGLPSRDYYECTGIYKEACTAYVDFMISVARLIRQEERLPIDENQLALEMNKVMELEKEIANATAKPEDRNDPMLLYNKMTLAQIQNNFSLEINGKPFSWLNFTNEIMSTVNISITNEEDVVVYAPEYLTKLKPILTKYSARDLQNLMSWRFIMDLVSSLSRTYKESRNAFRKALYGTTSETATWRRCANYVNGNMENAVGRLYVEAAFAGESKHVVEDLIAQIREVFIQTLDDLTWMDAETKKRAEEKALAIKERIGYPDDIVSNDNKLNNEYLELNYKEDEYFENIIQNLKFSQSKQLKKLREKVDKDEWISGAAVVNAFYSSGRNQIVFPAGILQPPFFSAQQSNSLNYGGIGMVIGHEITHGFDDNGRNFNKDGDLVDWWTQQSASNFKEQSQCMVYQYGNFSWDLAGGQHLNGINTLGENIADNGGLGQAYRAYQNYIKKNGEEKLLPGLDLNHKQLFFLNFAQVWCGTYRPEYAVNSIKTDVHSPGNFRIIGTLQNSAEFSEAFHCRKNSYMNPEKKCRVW

Regarding `CC[C@H](C)[C@@H]1NC(=O)[C@H](CCCNC(=N)N)NC(=O)[C@H](CC(=O)O)NC(=O)[C@H](CC(C)C)NC(=O)[C@H](CCCCN)NC(=O)[C@H](CC(C)C)NC(=O)CNC(=O)[C@H](Cc2ccccc2)NC(=O)[C@@H](NC(=O)CNC(=O)[C@H](CCCCN)NC(=O)[C@H](CO)NC(=O)[C@H](CC(C)C)NC(=O)CN)CSSC[C@@H](C(=O)O)NC(=O)CNC(=O)[C@H](CC(C)C)NC(=O)CNC(=O)[C@H](CO)NC(=O)[C@H](CCSC)NC(=O)[C@H](CO)NC(=O)CNC1=O` [hCNP], the “percent remaining after exposure to hNEP” value in series [1] is 1%. In addition, in series [2], the “reported human plasma half-life” value is “about 2 minutes”.
With `CCCCCCC(=O)N[C@H]1CSSC[C@@H](C(=O)N[C@@H](Cc2ccc(O)cc2)C(=O)N2C[C@H](C(N)=O)NC(=O)[C@@H]2CCCNC(=N)N)NC(=O)[C@H](CO)NC(=O)[C@H]([C@@H](C)CC)NC(=O)[C@H](CCCNC(=N)N)NC(=O)[C@H](CC(=O)O)NC(=O)[C@@H](CCCC)NC(=O)[C@H](CCCNC(=N)N)NC(=O)CNC(=O)[C@@H](C)NC(=O)[C@H](Cc2ccccc2)NC(=O)[C@H](Cc2c[nH]cn2)NC1=O` [mimetic of formula IV] (Heptanoyl-CHF[dA]GR[dNle]DRISCY-X1; disulfide 1-12), the “Function (cGMP) Emax (% of ANP response)” value in series [3] was 94 ± 8 % of ANP response. Besides, the t½ stood at 3.03 ± 0.345 h in series [4] (0.7 μg/kg) and 2.98 ± 3.61 h in series [4] (1.0 μg/kg).
